± gives the uncertainty stated by the source.
Assay: xn = mol fraction of the nth substance listed

CC(=O)OC(C)C + C1CCCCC1
viscosity [mPa·s], 101 kPa
Conditions	298.15 K	308.15 K
x1 = 0.0846	0.8036 ± 0.0051	0.6718 ± 0.0044
x1 = 0.1126	0.7518 ± 0.0049	0.6494 ± 0.0043
x1 = 0.1665	0.705 ± 0.0046	0.612 ± 0.0041
x1 = 0.2671	0.636 ± 0.0042	0.5559 ± 0.0038
x1 = 0.3555	0.594 ± 0.004	0.5212 ± 0.0036
x1 = 0.4881	0.5485 ± 0.0038	0.4824 ± 0.0034
x1 = 0.5911	0.5241 ± 0.0036	0.462 ± 0.0033
x1 = 0.6773	0.5099 ± 0.0035	0.4512 ± 0.0032
x1 = 0.7902	0.4951 ± 0.0035	0.441 ± 0.0032
x1 = 0.8873	0.4932 ± 0.0035	0.4366 ± 0.0031
x1 = 0.9593	0.4903 ± 0.0034	0.4349 ± 0.0031
x2 = 0.07507	–	0.4324 ± 0.0096
x2 = 0.2053	–	0.4373 ± 0.0096
x2 = 0.298	–	0.4444 ± 0.0097
x2 = 0.3967	–	0.4564 ± 0.0099
x2 = 0.505	–	0.4759 ± 0.01
x2 = 0.6014	–	0.4989 ± 0.01
x2 = 0.714	–	0.5351 ± 0.011
x2 = 0.7973	–	0.5787 ± 0.012
x2 = 0.8978	–	0.6451 ± 0.013

CCCC(=O)O + C1CCCCC1
303.15 K, 101 kPa
Conditions	viscosity [mPa·s]
x2 = 0.101	1.196 ± 0.014
x2 = 0.1921	1.069 ± 0.013
x2 = 0.2875	0.9914 ± 0.012
x2 = 0.3938	0.9189 ± 0.011
x2 = 0.4993	0.867 ± 0.01
x2 = 0.591	0.8407 ± 0.0099
x2 = 0.6993	0.7948 ± 0.0094
x2 = 0.8074	0.7912 ± 0.0094
x2 = 0.9011	0.7924 ± 0.0094

CCCC(C)O (configuration not stated) + C1CCCCC1
303.15 K, 101.33 kPa
Conditions	viscosity [mPa·s]
x1 = 0.1049	0.874 ± 0.011
x1 = 0.2028	0.94 ± 0.012
x1 = 0.3035	1.03 ± 0.013
x1 = 0.4031	1.151 ± 0.014
x1 = 0.5017	1.306 ± 0.016
x1 = 0.6043	1.534 ± 0.018
x1 = 0.6903	1.772 ± 0.021
x1 = 0.801	2.116 ± 0.025
x1 = 0.9115	2.521 ± 0.029

CCCCBr + C1CCCCC1
308.15 K, 101 kPa
Conditions	viscosity [mPa·s]
x2 = 0.1017	0.5246 ± 0.0044
x2 = 0.2037	0.5305 ± 0.0043
x2 = 0.3038	0.5365 ± 0.0042
x2 = 0.4015	0.5458 ± 0.0042
x2 = 0.5006	0.5596 ± 0.0042
x2 = 0.5951	0.5789 ± 0.0043
x2 = 0.7004	0.6032 ± 0.0043
x2 = 0.8014	0.6338 ± 0.0044
x2 = 0.899	0.6799 ± 0.0046

CCCCNCCCC + C1CCCCC1
viscosity [mPa·s], 101 kPa
Conditions	303.15 K	313.15 K
x1 = 0.01094	0.8102 ± 0.0056	0.7072 ± 0.005
x1 = 0.02041	0.8023 ± 0.0055	0.6959 ± 0.005
x1 = 0.02983	0.7945 ± 0.0055	0.6867 ± 0.0049
x1 = 0.03917	0.7871 ± 0.0055	0.6761 ± 0.0049
x1 = 0.04929	0.7755 ± 0.0054	0.6665 ± 0.0048
x1 = 0.05831	0.7665 ± 0.0054	0.6583 ± 0.0048
x1 = 0.06895	0.7585 ± 0.0053	0.6494 ± 0.0048
x1 = 0.07966	0.7491 ± 0.0053	0.6406 ± 0.0047
x1 = 0.08806	0.742 ± 0.0053	0.6327 ± 0.0047
x2 = 0.1011	0.749 ± 0.015	–
x2 = 0.2001	0.737 ± 0.015	–
x2 = 0.3025	0.731 ± 0.015	–
x2 = 0.4034	0.728 ± 0.015	–
x2 = 0.4997	0.727 ± 0.015	–
x2 = 0.605	0.729 ± 0.015	–
x2 = 0.7025	0.727 ± 0.015	–
x2 = 0.7989	0.743 ± 0.015	–
x2 = 0.8971	0.759 ± 0.015	–

COCCO + C1CCCCC1
viscosity [mPa·s], 101 kPa
Conditions	298.15 K	308.15 K
x1 = 0.054	0.905 ± 0.016	0.75 ± 0.013
x1 = 0.1506	0.923 ± 0.016	0.757 ± 0.013
x1 = 0.2513	0.95 ± 0.016	0.773 ± 0.014
x1 = 0.3532	0.989 ± 0.017	0.797 ± 0.014
x1 = 0.4508	1.037 ± 0.017	0.829 ± 0.015
x1 = 0.4955	1.062 ± 0.018	0.847 ± 0.015
x1 = 0.5513	1.098 ± 0.018	0.873 ± 0.015
x1 = 0.649	1.172 ± 0.019	0.926 ± 0.016
x1 = 0.7493	1.264 ± 0.021	0.994 ± 0.017
x1 = 0.8496	1.377 ± 0.022	1.079 ± 0.018
x1 = 0.9529	1.518 ± 0.024	1.185 ± 0.02

CCCC(=O)O + C1CCOC1
298.15 K, 101 kPa
Conditions	viscosity [mPa·s]
x2 = 0.1195	1.45 ± 0.012
x2 = 0.234	1.43 ± 0.012
x2 = 0.3437	1.34 ± 0.011
x2 = 0.4489	1.212 ± 0.01
x2 = 0.5499	1.068 ± 0.0091
x2 = 0.647	0.9205 ± 0.0078
x2 = 0.7403	0.7856 ± 0.0067
x2 = 0.8301	0.6588 ± 0.0057
x2 = 0.9166	0.545 ± 0.0048

CCOC(=O)C(=O)OCC + C1CCOC1
viscosity [mPa·s], 101 kPa
Conditions	x1 = 0.0955	x1 = 0.2037	x1 = 0.3007	x1 = 0.4056	x1 = 0.513	x1 = 0.6056	x1 = 0.7083	x1 = 0.7994	x1 = 0.9082
303.15 K	0.506 ± 0.031	0.591 ± 0.036	0.683 ± 0.041	0.795 ± 0.048	0.916 ± 0.055	1.03 ± 0.062	1.173 ± 0.071	1.298 ± 0.078	1.472 ± 0.089
313.15 K	0.453 ± 0.027	0.529 ± 0.032	0.607 ± 0.037	0.698 ± 0.042	0.801 ± 0.048	0.893 ± 0.054	1.006 ± 0.061	1.107 ± 0.067	1.237 ± 0.075
323.15 K	0.414 ± 0.025	0.479 ± 0.029	0.544 ± 0.033	0.619 ± 0.037	0.701 ± 0.042	0.782 ± 0.047	0.872 ± 0.053	0.954 ± 0.058	1.057 ± 0.064

C1CC[C@H]2CCCC[C@H]2C1 + C1CC[C@H]2CCCC[C@@H]2C1
Conditions	viscosity [mPa·s]
293.15 K, 101 kPa, x1 = 0.103	2.193 ± 0.051
293.15 K, 101 kPa, x1 = 0.129	2.206 ± 0.052
293.15 K, 101 kPa, x1 = 0.206	2.289 ± 0.053
293.15 K, 101 kPa, x1 = 0.256	2.321 ± 0.054
293.15 K, 101 kPa, x1 = 0.383	2.391 ± 0.056
293.15 K, 101 kPa, x1 = 0.509	2.622 ± 0.061
293.15 K, 101 kPa, x1 = 0.608	2.748 ± 0.063
293.15 K, 101 kPa, x1 = 0.633	2.763 ± 0.064
293.15 K, 101 kPa, x1 = 0.756	2.943 ± 0.068
293.15 K, 101 kPa, x1 = 0.805	3.026 ± 0.069
293.15 K, 101 kPa, x1 = 0.903	3.178 ± 0.073
293.15 K, 101.3 kPa, x1 = 0.403	2.445 ± 0.29
298.15 K, 100 kPa, x1 = 0.39	2.22 ± 0.09
303.15 K, 101 kPa, x1 = 0.103	1.68 ± 0.04
303.15 K, 101 kPa, x1 = 0.129	1.704 ± 0.041
303.15 K, 101 kPa, x1 = 0.206	1.748 ± 0.042
303.15 K, 101 kPa, x1 = 0.256	1.792 ± 0.043
303.15 K, 101 kPa, x1 = 0.383	1.896 ± 0.045
303.15 K, 101 kPa, x1 = 0.509	1.977 ± 0.047
303.15 K, 101 kPa, x1 = 0.608	2.062 ± 0.048
303.15 K, 101 kPa, x1 = 0.633	2.094 ± 0.049
303.15 K, 101 kPa, x1 = 0.756	2.151 ± 0.05
303.15 K, 101 kPa, x1 = 0.805	2.244 ± 0.052
303.15 K, 101 kPa, x1 = 0.903	2.342 ± 0.055
303.15 K, 101.3 kPa, x1 = 0.403	1.998 ± 0.24
313.15 K, 101.3 kPa, x1 = 0.403	1.705 ± 0.2
323.15 K, 100 kPa, x1 = 0.39	1.44 ± 0.059
323.15 K, 101.3 kPa, x1 = 0.403	1.457 ± 0.17

CC(CC(C)(C)C)CC(C)(C)CC(C)(C)C (configuration not stated) + C1CC[C@H]2CCCC[C@H]2C1
viscosity [mPa·s], 100 kPa
Conditions	x2 = 0.125	x2 = 0.25	x2 = 0.375	x2 = 0.5	x2 = 0.625	x2 = 0.75	x2 = 0.875
293.15 K	3.68 ± 0.095	3.64 ± 0.094	3.559 ± 0.092	3.505 ± 0.09	3.456 ± 0.088	3.402 ± 0.087	3.377 ± 0.086
303.15 K	2.919 ± 0.076	2.871 ± 0.075	2.83 ± 0.074	2.797 ± 0.073	2.765 ± 0.072	2.736 ± 0.07	2.713 ± 0.07
313.15 K	2.364 ± 0.061	2.334 ± 0.06	2.303 ± 0.059	2.279 ± 0.058	2.259 ± 0.058	2.254 ± 0.057	2.228 ± 0.056
323.15 K	1.961 ± 0.05	1.934 ± 0.049	1.911 ± 0.048	1.897 ± 0.048	1.884 ± 0.047	1.876 ± 0.047	1.87 ± 0.047

CCCCNCCCC + C1COCCO1
Conditions	viscosity [mPa·s]
303.15 K, 101 kPa, x1 = 0.01068	1.065 ± 0.0078

CCCC(=O)O + C1COCO1
298.15 K, 101 kPa
Conditions	viscosity [mPa·s]
x2 = 0.2292	1.358 ± 0.011
x2 = 0.3376	1.288 ± 0.011
x2 = 0.5433	1.098 ± 0.0093
x2 = 0.6408	0.9928 ± 0.0084
x2 = 0.7351	0.8845 ± 0.0075
x2 = 0.8263	0.7758 ± 0.0066
x2 = 0.9146	0.6775 ± 0.0058
